Measured values taken from PMC10584882 (Communications Biology, 2023).
“And” between values parts separate entries of the source, which are not always exact repeats. Equal entries are not always repeated. “Also recorded” adds a separate entry of the source.

Experiments:
[1] = system: SARS-CoV-2-GFP; assay: microbe, parasite or virus in culture; format: cell-based; settings: mean with standard error, read-out: VERO E6 EC50
[2] = system: SARS-CoV-2; assay: Cytopathic effect inhibition assay in LC-HK2 cells; format: cell-based; settings: for CPE inhibition (%): LC-HK2
[3] = system: LC-HK2 cells; assay: Fluorescence microscopy, S-protein vesicle size in infected LC-HK2 cells; format: cell-based, human; settings: 1.5 µM, versus control
Experimental: LC-HK2 was cultivated on coverslips (13 mm diameter) to approximately 80% confluence. The cells were pre-treated for 2 h with 1.5 µM of S-Calpeptin diluted in DMEM supplemented with 2.5% FBS. The compounds were removed, and SARS-CoV-2 strain diluted in DMEM supplemented with 2.5% FBS was added to LC-HK2 cells at M.O.I of 0.05, allowing absorption for 1 h. The viral inoculum was removed, and cells were gently washed with PBS without calcium and magnesium. The cells were incubated in the continued presence of 1.5 µM of S-Calpeptin diluted in DMEM supplemented with 2.5% FBS and were examined by fluorescence microscopy at the time points 32, 40, 48, 56, 64 and 72 h post-infection.
For this purpose, the cells were fixed and permeabilized with 3.7% formaldehyde solution (Sigma-Aldrich, F1635) containing 0.2% Triton X-100 in PBS 1×. […] The images were captured using fluorescence range intensity adjusted identically within each experimental series.
Vesicles size quantifications were obtained from 2D maximum projections of Z stacks exported as grayscale TIFs (16-bit depth) using Automated Image Analysis in Zen 2.6 blue software (ZEISS). […]
In the Fluorescence microscopy evaluation, the P-values were generated by unpaired t-test using GraphPad Prism version 8.00 (La Jolla, CA, USA, www.graphpad.com). […]

[4] = molecular target: T1, human CatK (Homo sapiens, UniProt P43235); assay: Cathepsin inhibition test, CatK; format: biochemical; settings: for Residual activity (Vi/V0): Fig. S3 panel a, single replicates
T1 construct: made in house
T1 sequence (P43235 115-329): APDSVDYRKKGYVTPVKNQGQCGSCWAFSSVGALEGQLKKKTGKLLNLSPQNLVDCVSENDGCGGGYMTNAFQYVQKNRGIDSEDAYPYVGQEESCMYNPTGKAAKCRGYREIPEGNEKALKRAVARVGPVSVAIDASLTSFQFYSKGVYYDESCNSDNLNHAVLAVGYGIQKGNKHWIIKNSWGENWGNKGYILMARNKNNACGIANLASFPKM

[5] = molecular target: T2, SARS-CoV-2 M^pro (Severe acute respiratory syndrome coronavirus 2, UniProt P0DTD1); format: biochemical; settings: mean with 95% confidence interval; 100 nM M^pro, pH 7.3, 37 °C
T2 construct: Initially reported to target the viral main protease (M^pro); made in house
Experimental: In the enzyme inhibition assays, the initial velocities were calculated from the initial linear portions of their curves, assuming steady-state kinetics. IC50 and Ki values were calculated using GraphPad Prism software. Z-FR-AMC (CatK and CatV), Z-RR-AMC (CatB and CatL), and QS1 or Acetyl-VKLQ-AMC (M^pro) substrates were used to monitor reactions. These measurements were done in four independent duplicates or triplicates, respectively.

[6] = molecular target: T3, human CatV (Homo sapiens, UniProt O60911); assay: Cathepsin inhibition test, CatV; format: biochemical; settings: Fig. S3 panel c, single replicates
T3 construct: made in house

[7] = system: SARS-CoV-2; assay: Cytopathic effect inhibition assay in VERO-CCL81 cells; format: cell-based; settings: for CPE inhibition (%): VERO CCL81, two experiments, listed as S-Calpepin
[8] = inhibitor 0.105 nM, 0.000105 µM
[9] = inhibitor 0.189 nM, 0.000189 µM
[10] = inhibitor 0.612 nM, 0.000612 µM
[11] = inhibitor 1.103 nM, 0.001103 µM
[12] = inhibitor 1.985 nM, 0.001985 µM
[13] = inhibitor 3.572 nM, 0.003572 µM
[14] = inhibitor 11.547 nM, 0.011547 µM

T3 sequence (O60911 114-334): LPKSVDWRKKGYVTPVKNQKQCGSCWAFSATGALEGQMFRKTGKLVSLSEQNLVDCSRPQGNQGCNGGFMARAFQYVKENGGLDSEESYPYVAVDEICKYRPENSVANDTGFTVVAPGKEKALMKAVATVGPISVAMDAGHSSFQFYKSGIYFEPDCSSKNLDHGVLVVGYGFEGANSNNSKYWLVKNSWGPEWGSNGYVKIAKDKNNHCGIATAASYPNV

CCCC[C@H](NC(=O)[C@H](CC(C)C)NC(=O)OCc1ccccc1)C(O)S(=O)(=O)[O-].[Na+] (stereo partly shown) [S-Calpeptin]
EC50 [1]: 120 ± 54 nM
EC50 ([2]; LC-HK2, CellTiter-Glo, 72 h post-infection, read-out: CPE inhibition EC50): 70 nM
CPE inhibition (%) ([2]; 0.000000000001 μM (first of two lines so printed, r18)): 0%
CPE inhibition (%) ([2]; 0.000000000001 μM (second line, r19)): 0%
CPE inhibition (%) ([2]; 0.00000000001 μM): 0%
CPE inhibition (%) ([2]; 0.0000000001 μM): 0%
CPE inhibition (%) ([2]; 0.000000001 μM): 0%
CPE inhibition (%) ([2]; 0.00000001 μM, listed as S-Calpepin, 10 fM): 4.03% and 3.04%
CPE inhibition (%) ([2]; 0.0000001 μM, listed as S-Calpepin, 100 fM): 0% and 1.04%
CPE inhibition (%) ([2]; 0.000001 μM, listed as S-Calpepin, 1 pM): 0% and 4.71%
CPE inhibition (%) ([2]; 0.00001 μM, listed as S-Calpepin, 10 pM): 5.52% and 8.92%
CPE inhibition (%) ([2]; 0.0001 μM, listed as S-Calpepin): 7.19% and 6.77%
CPE inhibition (%) ([2]; 0.001 μM, listed as S-Calpepin): 23.15% and 18.35%
CPE inhibition (%) ([2]; 0.01 μM, listed as S-Calpepin): 22.53% and 19.69%
CPE inhibition (%) ([2]; 0.1 μM, listed as S-Calpepin): 56.52% and 41.43%
CPE inhibition (%) ([2]; 1 μM, listed as S-Calpepin): 87.89% and 72.23%
CPE inhibition (%) ([2]; 10 μM, listed as S-Calpepin): 85.17% and 78.3%
impact on vesicle morphology / S-protein vesicle size [3]: did not reveal significant differences; also recorded: no substantial impact on vesicle morphology
Residual activity (Vi/V0) ([4]; inhibitor 0.010 nM, 10 pM): 1.028 and 1.067 and 0.9629 and 0.9414 and 0.9225
Residual activity (Vi/V0) ([4]; inhibitor 0.018 nM, 18 pM): 1.062 and 1.238 and 0.9724 and 0.8624 and 0.8684
Residual activity (Vi/V0) ([4]; inhibitor 0.032 nM, 32 pM): 0.9319 and 1.215 and 0.8238 and 0.889 and 0.8605
Residual activity (Vi/V0) ([4]; inhibitor 0.058 nM, 58 pM): 0.7562 and 0.8292 and 0.7671
Residual activity (Vi/V0) [4, 8]: 1.104 and 0.8757 and 0.7581 and 0.6636 and 0.6847
Residual activity (Vi/V0) [4, 9]: 0.6363 and 0.7129 and 0.6855 and 0.6137 and 0.6926
Residual activity (Vi/V0) ([4]; inhibitor 0.340 nM, 0.00034 µM): 0.4419 and 0.3556 and 0.547 and 0.5599 and 0.6191
Residual activity (Vi/V0) [4, 10]: 0.562 and 0.5894 and 0.4634 and 0.3938 and 0.3707
Residual activity (Vi/V0) [4, 11]: 0.4683 and 0.4274 and 0.3853 and 0.3355 and 0.2949
Residual activity (Vi/V0) [4, 12]: 0.2888 and 0.2948 and 0.2332 and 0.2265 and 0.1772
Residual activity (Vi/V0) [4, 13]: 0.2021 and 0.2433 and 0.1658 and 0.1472 and 0.1161
Residual activity (Vi/V0) ([4]; inhibitor 6.430 nM, 0.00643 µM): 0.1399 and 0.09741 and 0.09721 and 0.03496
Residual activity (Vi/V0) [4, 14]: 0.01107 and 0.1108 and 0.1149 and 0.0689 and 0.02957
Residual activity (Vi/V0) ([4]; inhibitor 20.833 nM, 0.020833 µM): 0.08599 and -0.06715 and 0.04731 and 0.03845 and 0.01885
Residual activity (Vi/V0) ([4]; inhibitor 37.500 nM, 0.0375 µM): -0.05695 and -0.1347 and 0.027 and 0.005377 and -0.00068
Ki ([4]; mean with standard deviation and 95% confidence interval, pH 5.5, 37 °C): 0.05 nM
Ki [5]: 4700 nM
Residual activity (Vi/V0) ([6]; inhibitor 0.010 nM, 10 pM): 0.8982 and 0.9438 and 1.016 and 0.9432 and 0.9838 and 0.9734 and 1.009 and 0.9925
Residual activity (Vi/V0) ([6]; inhibitor 0.018 nM, 18 pM): 0.7063 and 0.8048 and 0.9697 and 0.9452 and 0.965 and 0.9273 and 1.044 and 0.9905
Residual activity (Vi/V0) ([6]; inhibitor 0.032 nM, 32 pM): 0.4743 and 0.664 and 0.9379 and 0.8845 and 0.8627 and 0.9319 and 1.237 and 0.91
Residual activity (Vi/V0) ([6]; inhibitor 0.058 nM, 58 pM): 0.01132 and 0.01674 and 0.9458 and 0.6877 and 0.9713 and 0.8348 and 1.1467 and 0.7642
Residual activity (Vi/V0) [6, 8]: 0.5008 and 0.5002 and 0.8948 and 0.8318 and 0.8983 and 0.7019 and 1.143 and 0.6207
Residual activity (Vi/V0) [6, 9]: 0.2447 and 0.2374 and 0.7712 and 0.7606 and 0.8108 and 0.5224 and 1.02 and 0.4249
Residual activity (Vi/V0) ([6]; inhibitor 0.340 nM, 0.00034 µM): 0.1518 and 0.1386 and 0.6304 and 0.6112 and 0.6332 and 0.3803 and 0.6867 and 0.2117
Residual activity (Vi/V0) [6, 10]: 0.103 and 0.1097 and 0.4478 and 0.4871 and 0.5442 and 0.179 and 0.3919 and 0.1269
Residual activity (Vi/V0) [6, 11]: 0.05798 and 0.06049 and 0.2946 and 0.2993 and 0.3554 and 0.1895 and 0.2004 and 0.05784
Residual activity (Vi/V0) [6, 12]: 0.03342 and 0.03103 and 0.1055 and 0.1184 and 0.07678 and 0.1061 and 0.06687 and 0.038
Residual activity (Vi/V0) [6, 13]: 0.01297 and 0.01099 and 0.0386 and 0.03676 and 0.03768 and 0.02078 and 0.03085 and 0.02157
Residual activity (Vi/V0) ([6]; inhibitor 6.430 nM, 0.00643 µM): 0.008943 and 0.006591 and 0.009607 and 0.008666 and 0.01717 and 0.01084 and 0.01202 and 0.007959
Residual activity (Vi/V0) [6, 14]: 0.003173 and 0.004275 and 0.001602 and 0.001011
CPE inhibition (%) ([7]; 0.0781 μM): 0% and 0.33%
CPE inhibition (%) ([7]; 0.625 μM): 38.01% and 20.29%
CPE inhibition (%) ([7]; 1.25 μM): 52.68% and 61.52%
CPE inhibition (%) ([7]; 2.5 μM): 60.88% and 68.39%
CPE inhibition (%) ([7]; 5 μM): 63.97% and 88.53%
CPE inhibition (%) ([7]; 10 μM): 67.47% and 80.91%
EC50 ([7]; VERO-CCL81, CellTiter-Glo, 48 h post-infection, read-out: CPE inhibition EC50): 700 nM
